This is an account of results in publication PMC8850458, “The AUTOTAC chemical biology platform for targeted protein degradation via the autophagy-lysosome system” (Nature Communications, 2022).

Values joined by “and” are separate entries in the source; they are usually repeats but may differ in a detail not shown here. Equal values may be shown once.

Data set [1] concerns RFP-GFP-hTauP301L pre-formed inclusion bodies. Description: ICC of mRFP-GFP-hTauP301L inclusion bodies (puncta, GFP/RFP ratio) in HeLa cells. Format: cell-based. Particulars: Fig. S6i, PBA-1105 given with O.A. The method, then:
Cells were cultured on coverslips coated with poly-L-lysine (Sigma) to observe cellular localization of proteins. Using 4% paraformaldehyde in PBS (pH 7.4), the cells were fixed for 15 min at room temperature and washed three times for 5 min with PBS. After fixing, the cells were permeabilized with 0.5% Triton X-100 in PBS solution for 15 min and washed three times with PBS for 5 min. The cells were blocked containing 2% BSA in PBS solution for 1 h at room temperature. Subsequently, the cells were incubated with primary antibody diluted in 2% BSA/PBS solution overnight at 4 °C, followed by washing the cells three times for 10 min with PBS and incubated with Alexa Fluor-conjugated secondary antibody diluted in 2% BSA/PBS for 30 min at room temperature. Using a DAPI-containing mounting medium (Vector Laboratories), the coverslips were mounted on glass slides. Confocal images were taken by laser scanning confocal microscope 510 Meta (Zeiss) and analyzed by Zeiss LSM Image Browser (ver. 4.2.0.121). […] Quantification results are shown as mean ± S.D. or S.E.M. of three independent experiments […]
Supplementary Fig. 6. […]
(0.1 μM, 24 h). (h) ICC in HeLa cells transiently expressing mRFP-GFP-hTauP301L and treated with okadaic acid (15 nM, 24 h) prior to the presence or absence of PBA-1105 (100 nM, […]
24 h). Scale bar, 10 µm. (i) Quantification of h for punctate formation and GFP/RFP ratio (n=3 biologically independent experiments each counting 50 cells and 10 puncta within one image).
Data are presented as mean values ± SD for aggregate formation and as mean values ± SEM […]
for GFP/RFP ratio. […]
(1 µM, 24 h) or negative control. P-values (from a two-sided unpaired t-test): **P < 0.00662 (for tau aggregate formation), **P < 0.00779 (for GFP/RFP ratio). Source data are provided

For data set [2], the target named is tauP301L insoluble and soluble species (Homo sapiens, UniProt P10636, P618L). Nature of the data set: Triton X-100-based insoluble/soluble fractionation. Format: cell-based. As to conditions: 2.5 μM 24 h, HCQ 10 μM. The method, then:
SH-SY5Y-tau BiFC cells were treated with PBA-1105, PBA and YTK-1105 to determine the degraded fraction of Tau. Using a cell lysis buffer (20 mM HEPES pH 7.9, 0.2 M KCl, 1 mM MgCl2, 1 mM EGTA, 1% Triton X-100, 10% glycerol, protease inhibitor and phosphatase inhibitor), the cells were collected and incubated on ice for 15 min, followed by centrifugation at 13,000 g for 10 min at 4 °C. The supernatant was collected as the soluble fraction and the pellet as the insoluble fraction. Using PBS, the insoluble fraction was washed 4 times and lysed with a SDS-detergent lysis buffer (20 mM HEPES pH 7.9, 0.2 M KCl, 1 mM MgCl2, 1 mM EGTA, 1% Triton x-100, 1% SDS, 10% glycerol, protease inhibitors and phosphatase inhibitors). 5X Laemmli sample buffer was added to the soluble and insoluble samples and boiled for 10 min at 100 °C and loaded on a SDS-PAGE gel.

In a further data set the test system is ACHN cells. Nature of the data set: WST-based cell viability assay in ACHN cells. As to conditions: for WST assay raw reading / WST assay viability relative to con = 100: ACHN, duplicates.
In a further data set the target is tauP301L (Homo sapiens, UniProt P10636, P618L). Nature of the data set: In vitro pulldown assay of biotinylated PBA. Format: binding. Particulars: tauP301L stably expressed in SH-SY5Y cells. The method, then: A set of synthetic 12-mer peptides corresponding to the N-terminal sequences of the V-BiP (V[19]-[…]-biotin) and V-RGS4 (V^2-[…]-biotin) was C-terminally biotin-conjugated. Alternatively, biotinylated versions of YOK-1304, YT-8-8, YTK-1105, YOK-2204, and PBA were synthesized. To cross-link the above peptides with resin beads, biotin-conjugated peptides, and small molecule were mixed with high-capacity streptavidin agarose resin (Thermo Fisher Scientific) at a ratio of 0.5 mg of peptide per 1 mL of settled resin and incubated on a rotator at 4 °C overnight. After washing five times with PBS, the peptide/small molecule-bead conjugates were diluted with PBS at a 1:1 ratio. To prepare protein extracts, cells were collected by centrifugation and lysed by freezing and thawing at least 10 times in hypotonic buffer [10 mM KCl, 1.5 mM MgCl2, and 10 mM HEPES (pH 7.9)] with a protease inhibitor mix (Sigma). After centrifugation at 15,000 rpm 4 °C for 15 min, proteins were quantified using a BCA protein assay kit (Thermo Fisher Scientific). Total protein (200 μg) diluted in 300 μL of binding buffer [0.05% Tween-20, 10% glycerol, 0.2 M KCl, and 20 mM HEPES (pH 7.9)] were mixed with 50 μL of peptide/small molecule-bead resin and incubated at 4 °C for 2 h on a rotator. The protein-bound beads were collected by centrifugation at 2400 × g for 3 min and washed five times with binding buffer. […]
Sequence of tauP301L (P10636 1-441 isoform P10636-8 P301L): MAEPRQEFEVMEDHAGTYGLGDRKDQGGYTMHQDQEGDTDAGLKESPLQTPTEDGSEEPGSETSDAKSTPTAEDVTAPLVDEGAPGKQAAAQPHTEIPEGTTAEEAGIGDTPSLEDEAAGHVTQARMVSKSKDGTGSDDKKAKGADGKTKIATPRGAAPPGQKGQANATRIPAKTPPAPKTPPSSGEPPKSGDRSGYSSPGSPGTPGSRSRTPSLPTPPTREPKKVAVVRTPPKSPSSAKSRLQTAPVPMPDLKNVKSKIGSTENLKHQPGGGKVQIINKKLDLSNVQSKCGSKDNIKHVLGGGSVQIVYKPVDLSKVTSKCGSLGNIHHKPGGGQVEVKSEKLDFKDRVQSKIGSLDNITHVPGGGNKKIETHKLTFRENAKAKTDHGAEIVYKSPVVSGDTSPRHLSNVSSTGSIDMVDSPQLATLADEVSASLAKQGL

Sequence of tauP301L insoluble and soluble species (P10636 1-441 isoform P10636-8 P301L): as above

For the compound `O=C(CCCc1ccccc1)NCCOCCOCCOCCNCc1ccc(OCc2ccccc2)c(OCc2ccccc2)c1` [PBA-1105], in data set [1] (con 1.00467), the “AVG GFP/RFP ratio per puncta, total AVG” value is on record as 0.4057. Also, the “AVG GFP/RFP ratio per puncta, relative % AVG” value in data set [1] (con 100) came to 40.3782%. Moreover, the “AVG GFP/RFP ratio per puncta, AVG per experiment” value in data set [1] (n=1 to n=3) was 0.551 and 0.37 and 0.296. In addition, the “puncta formation of cells with AVG RFP/GFP ratio < 0.5, AVG of cells per 50 cells” value in data set [1] (RFP-GFP-TauP301L, con 4.33333) is listed as 30.3333. Moreover, the “puncta formation of cells with AVG RFP/GFP ratio < 0.5, percentage AVG” value in data set [1] (RFP-GFP-TauP301L, con 8.66667) amounted to 60.6667. The “puncta formation of cells with AVG RFP/GFP ratio < 0.5, cells counted per 50 cells” value in data set [1] (RFP-GFP-TauP301L, single experiments) was 33 and 37 and 21. For the same compound, the “autophagic degradation of detergent-soluble and -insoluble tauP301L” value in data set [2] was “promoted autophagic degradation of not only detergent-soluble but critically also -insoluble species”.
`O[C@H](CNCCOCCOCCOc1ccc(-c2c(-c3ccccc3)nn3c(C(F)(F)F)cc(C(F)(F)F)nc23)cc1)COc1ccc(OCc2ccccc2)c(OCCCc2ccccc2)c1` [PHTPP-1304]: the “higher cytotoxicity than p62-binding ligand or TBL” value in the data set with ACHN cells (ACHN cells) is ~ 5 fold. For the same compound, the “WST assay raw reading” value with ACHN cells (0.01uM) is 1.001 and 0.98; with ACHN cells (0.1uM), 1.009 and 1.004; in the data set with ACHN cells (1uM), 0.961 and 0.962; in the data set with ACHN cells (10uM), 0.146 and 0.145; in the data set with ACHN cells (50uM), 0.234 and 0.222; in the data set with ACHN cells (100uM) it was 0.256 and 0.273. The “WST assay viability relative to con = 100” value with ACHN cells (0.01uM) worked out at 98.3465; in the data set with ACHN cells (0.1uM) it was 101.115; in the data set on ACHN cells (1uM), 96.2699; in the data set on ACHN cells (10uM) it was 2.019; with ACHN cells (50uM) it was 10.9017; in the data set with ACHN cells (100uM), 16.7852.
`O=C(O)CCCc1ccccc1` [4-PBA, 4-phenylbutyric acid]: the “binding of tauP301L in pulldown” value on tauP301L is given as “bound”.
